Results: US20230263783A1, “CANCER TREATMENT BY COMBINED INHIBITION OF POLO-LIKE KINASE AND MICROTUBULE POLYMERIZATION” (Massachusetts Institute of Technology, priority 2022, published 2023)
Read-outs that look alike come from different tables or passages of the source.

Tests used:
[1] = test system: C4-2 castrate resistant prostate cancer (CRPC) cells; assay: Relative viability after drug dose matrix (CellTiter-Glo, Bliss Independence) in C4-2 cells; format: cell-based; details: each Plk1 inhibitor in combination with TH588; relative viability
Description: All cell lines were cultured in a humidified incubator at 37° C. and with 5% CO2, were maintained sub-confluent and used for no more than 20 passages. Media was supplemented with 10% fetal bovine serum (FBS), contained 2 mM glutamine and lacked antibiotics, unless otherwise noted. A549, BT-20, CCD-1112sk, CCD-18co, CFPAC1, HCT 116, HeLa, HT-29, HT55, MCF7, MDA-MB-157, MDA-MB-231, MDA-MB-415, MDA-MB-436, MDA-MB-453, MDA-MB-468, SW48, T98G, U-2 OS, U-87 MG, CAOV3, COV362, and JIMT1 cells were grown in DMEM; 22RV1, AU565, C4-2, CAL33, COL0205,HCC38, HCT-15, KYSE150, LNCaP, LOVO, NCI-H1299, PC-3, ZR-75-1, HCC1419, HCC1569, HCC1954, ZR7530, OVCAR-4, OVCAR8 cells were grown in RPMI 1640; HT1197, HT1376, J82, UMUC3 cells were grown in MEM; OV90, TOV122D, TOV21G cells were grown in 1:1 MCDB105:Medial99 15% FBS; 59M, OAW28, OAW42 cells were grown in Advanced DMEM 0.023 IU/ml insulin; ES2, SKOV3 cells were grown in McCoy's 5A; JHOS2, JHOS4 cells were grown in 1:1 DMEM:HamF12; HUVEC cells were grown in EBM with EGM™-2 BULLETKIT™
(§1) For dose response experiments and experiments that examine synergy as a measure of change in relative viability, cells were grown in 384-well plates in triplicate. The following day the cells were subjected to a drug dose matrix that consisted of increasing concentrations of a Plk inhibitor, increasing concentrations of a microtubule polymerization inhibitor, and all pairwise combinations. Drugs were dissolved in DMSO and diluted in the appropriate cell growth media while maintaining a constant final concentration of DMSO. After five days, relative viability was assessed using […]-GLO™ (Promega) Luminescent Cell Viability Assay according to the manufacturer's recommendations. Luminescence was measured using an […]™ M200 Pro plate reader (Tecan Group Ltd.). […] The dose response plots (for example FIG. 1A) show sensitivity to increasing concentrations of a microtubule polymerization inhibitor in the absence or presence of a constant amount of Plk inhibitor. Bars represent the standard error of the mean. The concentration of Plk inhibitor chosen to presented was based on a ˜20-30% reduction of viability when that drug was used at that dose in isolation. The entire amount of greater-than-additive response observed in the dose matrix is the integrated volume between the observed and expected surfaces generated by the response matrix and is also known as Bliss Volume. Bliss Volume synergy metrics are presented in FIG. 3 as the fractional change in volume between the expected and observed response surfaces.

HCT 116 xenografts = details: cited from earlier work
BxPC-3 = details: twice-weekly; cited from earlier work
A549 = details: twice-weekly; cited from earlier work
[2] = cited from earlier work; for maximum tolerated dose: elderly patients with relapsed/refractory AML
[3] = molecular target: several tyrosine kinases and cyclin-dependent kinase 1; details: read-out: IC50, tyrosine kinases and Cdk1; cited from earlier work
[4] = test system: Bel-7402, MCF-7, and MIA-PaCa cells; details: 250 mg/kg; cited from earlier work
BT20 cells = details: 200 mg/kg; cited from earlier work
tumor cells = assay: Tumor cell killing by other microtubule polymerization inhibitors with Plk1 inhibitors; format: cell-based; details: in combination with Plk1 inhibitors
Description: as §1, with “Bliss Volume synergy metrics are presented in FIG. 3 as the fractional change in volume between the expected and observed response surfaces.” left out

cell mitosis = details: read-out: EC50, inhibition of cell mitosis; cited from earlier work
[5] = test system: Cdc25C-T96 phosphorylation; details: direct readout of PLK1 inhibition; cited from earlier work
[6] = cited from earlier work
mouse xenograft models = details: 10 mg/kg and 20 mg/kg on days 1 and 28; cited from earlier work
[7] = test system: HT-29 human colorectal tumors; details: cited from earlier work
Plk1 = Plk1 (Homo sapiens, UniProt P53350); details: cited from earlier work
Plk1, sequence (P53350 whole entry): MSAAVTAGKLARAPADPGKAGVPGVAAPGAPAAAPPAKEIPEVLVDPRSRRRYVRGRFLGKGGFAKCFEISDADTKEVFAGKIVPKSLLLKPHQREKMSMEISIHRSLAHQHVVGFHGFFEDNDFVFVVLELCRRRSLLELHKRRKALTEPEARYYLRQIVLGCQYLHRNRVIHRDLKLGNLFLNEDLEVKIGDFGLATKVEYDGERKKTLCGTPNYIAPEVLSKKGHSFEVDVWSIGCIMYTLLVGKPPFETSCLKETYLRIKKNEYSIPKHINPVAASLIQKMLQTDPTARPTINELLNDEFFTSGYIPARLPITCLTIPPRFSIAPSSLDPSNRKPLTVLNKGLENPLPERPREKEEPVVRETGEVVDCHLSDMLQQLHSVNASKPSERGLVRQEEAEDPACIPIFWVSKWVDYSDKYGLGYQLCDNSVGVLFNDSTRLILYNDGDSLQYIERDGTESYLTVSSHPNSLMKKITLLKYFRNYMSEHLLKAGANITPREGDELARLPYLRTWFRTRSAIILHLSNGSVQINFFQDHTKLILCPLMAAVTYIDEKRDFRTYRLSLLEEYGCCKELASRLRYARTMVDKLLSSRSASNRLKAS

Q: What does the source list for `CC[C@@H]1C(=O)N(C)c2cnc(Nc3ccc(C(=O)NC4CCN(C)CC4)cc3OC)nc2N1C1CCCC1` [BI2536]?
A: effect of the combination of TH588 with a Plk1 inhibitor [1]: more than additive; T/C, HCT 116 xenografts (HCT 116 xenografts; 50 mg/kg once per week): 15%; T/C, HCT 116 xenografts (HCT 116 xenografts; 50 mg/kg twice per week): 0.3%; T/C, BxPC-3 model (BxPC-3): 5%; T/C, A549 model (A549): 14%; MTD suggested by other studies ([2]; Frost et al.): 50 to 70 mg; maximum tolerated dose ([2]; day 1 schedule): 350 mg; maximum tolerated dose ([2]; days 1+8 schedule): 200 mg; maximum tolerated dose (MTD) in combination with pemetrexed ([2]; intravenous, NSCLC, day 1 every 3 weeks): 300 mg; dose at which dose-limiting toxicities occurred ([2]; with 500 mg/m^2 pemetrexed, NSCLC, day 1 every 3 weeks, two DLT): 325 mg

Q: Which results are given for `COc1cc(OC)c(/C=C/S(=O)(=O)Cc2ccc(OC)c(NCC(=O)[O-])c2)c(OC)c1.[Na+]` [ON 01910]?
A: IC50 [3]: 18 to 260 nM; tumor growth in xenograft models [4]: inhibited tumor growth; tumor growth in xenograft model (BT20 cells): inhibition of tumor growth; MTD ([2]; i.v., days 1, 4, 8, 11, 15, and 18 in 28-day cycles, advanced solid tumors): 3,120 mg

Q: For `COC(=O)Nc1nc2ccc(C(=O)c3cccs3)cc2[nH]1` [nocodazole], which “effect when used with Plk1 inhibitors in killing tumor cells” value (tumor cells) is on record?
A: more-than-additive effect

Q: With `CN1CCN(c2ccc(OC(F)(F)F)c(Nc3ncc4c(n3)-c3c(c(C(N)=O)nn3CCO)CC4)c2)CC1` [onvansertib] as the molecule, how does the “effect of the combination of TH588 with a Plk1 inhibitor” value [1] read?
A: more than additive

Q: For `CC[C@]1(O)C[C@@H]2C[N@@](CCc3c([nH]c4ccccc34)[C@@](C(=O)OC)(c3cc4c(cc3OC)N(C=O)[C@H]3[C@@](O)(C(=O)OC)[C@H](OC(C)=O)[C@]5(CC)C=CCN6CC[C@]43[C@@H]65)C2)C1` [vincristine], which “effect when used with Plk1 inhibitors in killing tumor cells” value (tumor cells) is on record?
A: more-than-additive effect

Q: Which EC50 (cell mitosis) does the source give for MLN0905 here?
A: 9 nM

Q: And the EC50 [5]?
A: 29 nM

Q: What about the maximum tolerated dose ([6]; QD (daily) schedule) of the same molecule?
A: 6.25 mg/kg

Q: And the maximum tolerated dose ([6]; QDx3/wk (3-days on/4-days off) schedule)?
A: 14.5 mg/kg

Q: For `COc1ccc(S(=O)(=O)Nc2ccccc2/C=C/c2cc[n+]([O-])cc2)cc1` [HMN-176], which “antitumor activity in mouse xenograft models” value (mouse xenograft models) is on record?
A: potent antitumor activity

Q: With `COc1cc(C(=O)NC2CCN(C)CC2)ccc1Nc1ncc2c(n1)N(C1CCCC1)CC(F)(F)C(=O)N2C` [RO3280] as the molecule, how does the “antitumor activity when dosed more frequently” value ([7]; dosed more frequently) read?
A: complete tumor regression

Q: And the tumor growth inhibition ([7]; once weekly at 40 mg/kg)?
A: 72%

Q: For `COc1ccc(S(=O)(=O)N(C(C)=O)c2ccccc2/C=C/c2cc[n+]([O-])cc2)cc1` [HMN-214], which MTD ([2]; 5 consecutive days every 4 weeks, based on previous patient treatment load) is on record?
A: 18 to 30 mg/m^2

Q: What about the “doses at which DLTs were observed” value ([2]; 5 consecutive days every 4 weeks) of the same molecule?
A: 24 to 48 mg/m^2

Q: And the “maximum tolerated dose and recommended dose” value ([2]; continuous 21-day dosing every 28 days)?
A: 8.0 mg/m^2/d

Q: And the “dose with dose-limiting toxicities” value ([2]; continuous 21-day dosing every 28 days, myalgia/bone pain syndrome and hyperglycemia)?
A: 9.9 mg/m^2/d

Q: For `COc1cc(C(=O)N[C@H]2CC[C@H](N3CCN(C)CC3)CC2)ccc1Nc1ncc2c(n1)N(C1CCCC1)CC1(CC1)C(=O)N2C` [Plogosertib], which IC50 (Plk1) is on record?
A: 3 nM

Q: For `C[C@@H](Oc1cc(-n2cnc3ccc(CN4CCN(C)CC4)cc32)sc1C(N)=O)c1ccccc1C(F)(F)F` [GSK461364], which “effect of the combination of TH588 with a Plk1 inhibitor” value [1] is on record?
A: more than additive

Q: What about the “final recommended phase II dose” value ([2]; intravenously, schedule A (days 1, 8, and 15 of 28-day cycle)) of the same molecule?
A: 225 mg

Q: And the “incidence of venous thrombotic emboli (VTE)” value ([2]; phase I, advanced solid tumors)?
A: 20%
